{
  "source": "paper PMC6162447",
  "about": "“Engineering Gain-of-Function Analogues of the Spider Venom Peptide HNTX-I, A Potent Blocker of the hNaV1.7 Sodium Channel” (Toxins, 2018)",
  "key": {"hNaV1.7": {"target": "T1, hNaV1.7 (Homo sapiens, UniProt Q15858)", "T1 construct": "expressed in transfected cells; host or cells: HEK 293", "T1 sequence (O60939 30-215)": "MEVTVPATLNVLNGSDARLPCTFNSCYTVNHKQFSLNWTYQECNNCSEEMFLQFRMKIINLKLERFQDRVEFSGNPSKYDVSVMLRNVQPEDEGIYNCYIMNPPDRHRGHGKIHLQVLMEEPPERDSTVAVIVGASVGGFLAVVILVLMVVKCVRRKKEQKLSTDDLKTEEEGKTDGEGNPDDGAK", "T1 sequence (Q07699 19-218, further chain)": "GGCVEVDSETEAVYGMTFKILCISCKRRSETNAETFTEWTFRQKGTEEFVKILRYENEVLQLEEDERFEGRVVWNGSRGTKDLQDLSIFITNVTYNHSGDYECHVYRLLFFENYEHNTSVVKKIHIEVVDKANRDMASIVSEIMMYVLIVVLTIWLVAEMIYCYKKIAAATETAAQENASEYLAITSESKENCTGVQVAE", "T1 sequence (Q15858 other isoform, or with tags, fused parts or gaps)": "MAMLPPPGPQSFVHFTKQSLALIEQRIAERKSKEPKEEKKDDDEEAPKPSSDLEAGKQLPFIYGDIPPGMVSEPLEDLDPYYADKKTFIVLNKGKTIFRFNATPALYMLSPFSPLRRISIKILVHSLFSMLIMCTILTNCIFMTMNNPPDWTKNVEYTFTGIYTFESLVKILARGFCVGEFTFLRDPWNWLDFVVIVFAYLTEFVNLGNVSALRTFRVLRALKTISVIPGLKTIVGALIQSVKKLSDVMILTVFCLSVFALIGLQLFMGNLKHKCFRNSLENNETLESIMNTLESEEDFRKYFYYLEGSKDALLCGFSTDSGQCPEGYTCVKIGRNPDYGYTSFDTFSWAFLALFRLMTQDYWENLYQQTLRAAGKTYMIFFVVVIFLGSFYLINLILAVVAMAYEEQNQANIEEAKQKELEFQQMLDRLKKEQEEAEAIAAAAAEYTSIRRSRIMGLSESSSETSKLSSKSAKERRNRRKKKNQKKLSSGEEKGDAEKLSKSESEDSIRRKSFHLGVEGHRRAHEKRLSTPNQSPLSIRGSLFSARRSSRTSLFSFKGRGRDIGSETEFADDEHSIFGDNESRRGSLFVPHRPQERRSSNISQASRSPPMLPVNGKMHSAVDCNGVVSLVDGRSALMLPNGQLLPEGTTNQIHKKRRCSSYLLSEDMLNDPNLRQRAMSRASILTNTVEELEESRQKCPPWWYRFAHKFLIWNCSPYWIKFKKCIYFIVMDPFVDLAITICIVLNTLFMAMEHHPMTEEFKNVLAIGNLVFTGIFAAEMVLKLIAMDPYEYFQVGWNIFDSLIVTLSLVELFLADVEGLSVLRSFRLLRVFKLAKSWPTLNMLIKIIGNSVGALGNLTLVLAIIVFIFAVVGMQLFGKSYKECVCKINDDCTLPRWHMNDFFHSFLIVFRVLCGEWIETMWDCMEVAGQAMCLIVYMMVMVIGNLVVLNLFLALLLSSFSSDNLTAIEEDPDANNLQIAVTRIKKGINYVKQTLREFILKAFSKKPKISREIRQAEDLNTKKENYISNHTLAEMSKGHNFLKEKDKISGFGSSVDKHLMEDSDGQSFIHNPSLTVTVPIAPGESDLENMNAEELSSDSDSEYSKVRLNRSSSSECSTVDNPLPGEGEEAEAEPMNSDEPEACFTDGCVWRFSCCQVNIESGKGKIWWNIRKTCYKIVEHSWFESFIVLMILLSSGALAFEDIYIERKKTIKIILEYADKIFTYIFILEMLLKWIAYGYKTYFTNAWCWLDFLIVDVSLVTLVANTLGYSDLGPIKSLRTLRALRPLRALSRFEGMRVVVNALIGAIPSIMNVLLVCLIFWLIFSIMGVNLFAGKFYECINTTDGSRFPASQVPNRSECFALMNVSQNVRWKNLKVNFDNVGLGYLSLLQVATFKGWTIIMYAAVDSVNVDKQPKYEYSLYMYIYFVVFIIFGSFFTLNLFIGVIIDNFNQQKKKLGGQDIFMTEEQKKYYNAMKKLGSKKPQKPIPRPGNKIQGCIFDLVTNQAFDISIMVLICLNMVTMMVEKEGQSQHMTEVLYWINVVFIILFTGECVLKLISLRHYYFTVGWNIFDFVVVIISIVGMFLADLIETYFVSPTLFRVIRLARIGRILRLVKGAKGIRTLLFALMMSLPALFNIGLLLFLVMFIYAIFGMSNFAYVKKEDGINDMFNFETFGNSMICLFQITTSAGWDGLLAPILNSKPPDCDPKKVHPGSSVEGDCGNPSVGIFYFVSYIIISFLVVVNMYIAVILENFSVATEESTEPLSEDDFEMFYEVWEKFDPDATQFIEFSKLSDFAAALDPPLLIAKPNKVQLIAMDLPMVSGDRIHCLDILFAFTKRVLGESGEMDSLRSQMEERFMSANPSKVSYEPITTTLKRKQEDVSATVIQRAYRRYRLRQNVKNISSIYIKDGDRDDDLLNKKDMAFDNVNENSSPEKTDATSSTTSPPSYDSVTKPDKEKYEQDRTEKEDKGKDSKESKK", "assay": "Whole-cell patch clamp on hNaV1.7 expressed in HEK 293 cells", "assay_type": "cell-based", "conditions": "for IC50: HEK 293 cells transfected with hNaV1.7 plus human β1 and β2 subunits, room temperature (20–25 °C), 50 ms depolarization to −10 mV from holding −100 mV, mean ± SEM", "procedure": "We maintained human embryonic kidney (HEK) 293 cells at 37 °C in a humidified 5% CO2 incubator in Dulbecco’s Modified Eagle’s Medium (DMEM) supplemented with 10% fetal bovine serum (FBS), 2 mM L-glutamine, 100 units/mL penicillin and 100 µg/mL streptomycin. cDNA genes encoding rat Nav1.2 and mouse Nav1.6 were subcloned into the vectors pcDNA3.1, respectively. We subcloned the gene that encodes hNaV1.7 into the vector pcDNA3.1-mod. We transfected the hNaV1.7 channel (3 μg) together with plasmids β1- (1 μg) and β2-eGFP ([…]), which encode the human β1 and β2 subunits, and Nav1.2 and Nav1.6 together with eGFP in HEK 293 cells using Lipofectamine 2000 (Invitrogen, Carlsbad, CA, USA) per the manufacturer’s instructions.\nWe performed whole-cell recordings using an EPC 10 patch clamp platform (HEKA, Elektronik, Lambrecht, Germany) at room temperature (20–25 °C). We made suction pipettes with access resistance of 2.0–3.0 MΩ from borosilicate glass capillary tubes (VWR micropipettes; VWR Co., West Chester, PA, USA) using a 2-step vertical microelectrode puller (PC-10; Narishige Co., Ltd., Tokyo, Japan) and compensated for voltage errors using 80% serial-resistance compensation. The standard pipette solution contained (in mM): 140 CsCl, 10 NaCl, 1 ethylene glycol-bis (β-aminoethyl ether)-N,N,N′,N′-tetraacetic acid (EGTA), and 10 HEPES (pH 7.4). The bath solution contained (in mM): 140 NaCl, 2 CaCl2, 1 MgCl2, 5 KCl, 20 4-(2-hydroxyethyl)-1-piperazineethanesulfonic acid (HEPES) and 10 glucose (pH 7.4). We purchased all chemicals from Sigma-Aldrich (St. Louis, MO, USA) and dissolved them in water. Data were acquired using PATCHMASTER software version 2x73 (HEKA Elektronik Dr. Schulze GmbH, Lambrecht, Germany). We filtered macroscopic sodium currents at 5 kHz and sampled them at 20 kHz. We acquired voltage clamp recordings 5 min after establishing a whole-cell configuration to allow adequate equilibration between the micropipette solution and the cell interior. We elicited channel current by 50 milliseconds of depolarization potential to −10 mV from the holding voltage of −100 mV.\nWe analyzed the data using Igor Pro software version 6.10A (WaveMetrics, Lake Oswego, OR, USA), Sigmaplot software version 10 (Sigma, St. Louis, MO, USA), OriginPro software version 8 (OriginLab Corp., Northampton, MA, USA) and Prism software version 5 (GraphPad Software, San Diego, CA, USA). Concentration–response curves were fitted using the following Hill logistic equation:y = fmax − (fmax − fmin)/(1 + (x/IC50)^n)(1) where fmax and fmin respectively represent the channel’s maximum and minimum responses to toxins, fmin was set to 0, x represents toxin concentration and n is an empirical Hill coefficient. All quantitative results are presented as mean ± standard error of the mean (SEM)."}, "insect sodium channels": {"tested_on": "insect sodium channels", "conditions": "cited from earlier work", "source_text": "(§1) Previously, we reported the identification of 33-residue peptide µ-TRTX-Hhn2b (HNTX-I), a member of NaSpTx family 1, from the venom of the spider Selenocosmia hainana. Although the amino acid sequence of this family is highly conserved, HNTX-I has shown weak affinity on insect sodium channels and no effect on mammalian voltage-gated sodium channels (VGSCs), unlike the majority of peptide toxins in NaSpTx family 1 [20]. In this study, we used HNTX-I as a framework and engineered analogues of it based on sequence conservation in the family. Ultimately, we engineered a gain-of-function analogue ..."}, "[1]": {"tested_on": "mammalian voltage-gated sodium channels (VGSCs)", "conditions": "including hNaV1.7; cited from earlier work", "source_text": "as §1, with “Pain is a medical condition that interferes with normal human life and work and reduces human well-being worldwide. Human voltage-gated sodium channel NaV1.7 (hNaV1.7) is a compelling target that plays a key role in human pain signaling. […] We engineered analogues of HNTX-I based on sequence conservation in NaSpTx family 1. Substitution of Asn for Ser at position 23 or Asp for His at ... || Previously,” for “Previously,”"}},
  "note": "Entries after “also recorded” stand apart in the source; their conditions may differ. Bridge positions count the residues as written; N and C are the ends. Peptide text beside a SMILES is read from it.",
  "data": [
    {"smiles": "CC(C)C[C@H](NC(=O)[C@H](CC(C)C)NC(=O)[C@@H](NC(=O)[C@H](CCCCN)NC(=O)[C@@H]1CSSC[C@@H]2NC(=O)[C@H](CCC(=O)O)NC(=O)[C@H](CC(N)=O)NC(=O)[C@H](CCCCN)NC(=O)CNC(=O)[C@@H]3CCCN3C(=O)[C@H](C(C)C)NC(=O)[C@@H]3CSSC[C@H](NC(=O)[C@H](C)NC(=O)[C@H](Cc4ccc(O)cc4)NC(=O)CNC(=O)[C@H](CO)NC(=O)[C@H](CSSC[C@H](NC(=O)[C@@H](N)CCC(=O)O)C(=O)N[C@@H](CCCCN)C(=O)NCC(=O)N[C@@H](Cc4ccccc4)C(=O)NCC(=O)N[C@@H](CCCCN)C(=O)N[C@@H](CO)C(=O)N3)NC2=O)C(=O)N[C@@H](CC(N)=O)C(=O)N[C@@H](CO)C(=O)N[C@@H](CCCNC(=N)N)C(=O)N[C@@H](CC(=O)O)C(=O)N[C@@H](CCCCN)C(=O)N[C@@H](Cc2c[nH]c3ccccc23)C(=O)N1)C(C)C)C(=O)O", "note": "[Native HNTX-I] (H-ECKGFGKSCVPGKNECCSGYACNSRDKWCKVLL-OH; disulfide 2-17, 9-22, 16-29 (inferred); N-terminus and C-terminus assumed)", "values": [
      {"measurement": "Activity on NaV1.7 at a concentration of 10 µM", "setting": "hNaV1.7; 10 µM peptide, HEK 293 cells (Figure 2A–C)", "result": "negligible activity"},
      {"measurement": "IC50", "setting": "hNaV1.7; n ≥ 3", "result": "> 10000", "unit": "nM"},
      {"measurement": "Affinity on insect sodium channels", "setting": "insect sodium channels", "result": "weak affinity"},
      {"measurement": "Effect on mammalian voltage-gated sodium channels (VGSCs)", "setting": "[1]", "result": "negligible activity; also recorded: no effect"}
    ]},
    {"smiles": "CC(C)C[C@H](NC(=O)[C@H](CC(C)C)NC(=O)[C@@H](NC(=O)[C@H](CCCCN)NC(=O)[C@@H]1CSSC[C@@H]2NC(=O)[C@H](CCC(=O)O)NC(=O)[C@H](CC(N)=O)NC(=O)[C@H](CCCCN)NC(=O)CNC(=O)[C@@H]3CCCN3C(=O)[C@H](C(C)C)NC(=O)[C@@H]3CSSC[C@H](NC(=O)[C@H](C)NC(=O)[C@H](Cc4ccc(O)cc4)NC(=O)CNC(=O)[C@H](CO)NC(=O)[C@H](CSSC[C@H](NC(=O)[C@@H](N)CCC(=O)O)C(=O)N[C@@H](CCCCN)C(=O)NCC(=O)N[C@@H](Cc4ccccc4)C(=O)NCC(=O)N[C@@H](CCCCN)C(=O)N[C@@H](CO)C(=O)N3)NC2=O)C(=O)N[C@@H](CO)C(=O)N[C@@H](CO)C(=O)N[C@@H](CCCNC(=N)N)C(=O)N[C@@H](CC(=O)O)C(=O)N[C@@H](CCCCN)C(=O)N[C@@H](Cc2c[nH]c3ccccc23)C(=O)N1)C(C)C)C(=O)O", "note": "[N23S] (H-ECKGFGKSCVPGKNECCSGYACSSRDKWCKVLL-OH; disulfide 2-17, 9-22, 16-29)", "values": [
      {"measurement": "IC50", "setting": "hNaV1.7; n ≥ 3, SEM", "result": "435 ± 72", "unit": "nM"}
    ]},
    {"smiles": "CC(C)C[C@H](NC(=O)[C@H](Cc1c[nH]c2ccccc12)NC(=O)[C@@H](NC(=O)[C@H](CCCCN)NC(=O)[C@@H]1CSSC[C@@H]2NC(=O)[C@H](CCC(=O)O)NC(=O)[C@H](CC(N)=O)NC(=O)[C@H](CCCCN)NC(=O)CNC(=O)[C@@H]3CCCN3C(=O)[C@H](C(C)C)NC(=O)[C@@H]3CSSC[C@H](NC(=O)[C@H](C)NC(=O)[C@H](Cc4ccc(O)cc4)NC(=O)CNC(=O)[C@H](CO)NC(=O)[C@H](CSSC[C@H](NC(=O)[C@@H](N)CCC(=O)O)C(=O)N[C@@H](CCCCN)C(=O)NCC(=O)N[C@@H](Cc4ccccc4)C(=O)NCC(=O)N[C@@H](CCCCN)C(=O)N[C@@H](CO)C(=O)N3)NC2=O)C(=O)N[C@@H](CO)C(=O)N[C@@H](CO)C(=O)N[C@@H](CCCNC(=N)N)C(=O)N[C@@H](Cc2c[nH]cn2)C(=O)N[C@@H](CCCCN)C(=O)N[C@@H](Cc2c[nH]c3ccccc23)C(=O)N1)C(C)C)C(=O)O", "note": "[N23S–D26H–L32W] (H-ECKGFGKSCVPGKNECCSGYACSSRHKWCKVWL-OH; disulfide 2-17, 9-22, 16-29)", "values": [
      {"measurement": "IC50", "setting": "hNaV1.7; n ≥ 3, SEM", "result": "71 ± 5", "unit": "nM"}
    ]},
    {"smiles": "CC(C)C[C@H](NC(=O)[C@H](Cc1c[nH]c2ccccc12)NC(=O)[C@@H](NC(=O)[C@H](CCCCN)NC(=O)[C@@H]1CSSC[C@@H]2NC(=O)[C@H](CCC(=O)O)NC(=O)[C@H](CC(N)=O)NC(=O)[C@H](CCCCN)NC(=O)CNC(=O)[C@@H]3CCCN3C(=O)[C@H](C(C)C)NC(=O)[C@@H]3CSSC[C@H](NC(=O)[C@H](C)NC(=O)[C@H](Cc4ccc(O)cc4)NC(=O)CNC(=O)[C@H](CO)NC(=O)[C@H](CSSC[C@H](NC(=O)CN)C(=O)N[C@@H](CCCCN)C(=O)NCC(=O)N[C@@H](Cc4ccccc4)C(=O)NCC(=O)N[C@@H](CCCCN)C(=O)N[C@@H](CO)C(=O)N3)NC2=O)C(=O)N[C@@H](CO)C(=O)N[C@@H](CO)C(=O)N[C@@H](CCCNC(=N)N)C(=O)N[C@@H](Cc2c[nH]cn2)C(=O)N[C@@H](CCCCN)C(=O)N[C@@H](Cc2c[nH]c3ccccc23)C(=O)N1)C(C)C)C(=O)O", "note": "[E1G–N23S–D26H–L32W] (H-GCKGFGKSCVPGKNECCSGYACSSRHKWCKVWL-OH; disulfide 2-17, 9-22, 16-29)", "values": [
      {"measurement": "IC50", "setting": "hNaV1.7; n ≥ 3, SEM", "result": "36 ± 7", "unit": "nM"}
    ]}
  ]
}
